Assay results taken from paper PMC8911752, “The Synthesis and Initial Evaluation of MerTK Targeted PET Agents” (Molecules, 2022).

Experiments:
Assay type in all cases: biochemical
Axl = target: T1, Axl (Homo sapiens, UniProt P30530); assay: Microcapillary electrophoresis (MCE) kinase assay, Axl; conditions: ATP at Km, mean of two or more independent assays
T1 sequence (P30530 26-894): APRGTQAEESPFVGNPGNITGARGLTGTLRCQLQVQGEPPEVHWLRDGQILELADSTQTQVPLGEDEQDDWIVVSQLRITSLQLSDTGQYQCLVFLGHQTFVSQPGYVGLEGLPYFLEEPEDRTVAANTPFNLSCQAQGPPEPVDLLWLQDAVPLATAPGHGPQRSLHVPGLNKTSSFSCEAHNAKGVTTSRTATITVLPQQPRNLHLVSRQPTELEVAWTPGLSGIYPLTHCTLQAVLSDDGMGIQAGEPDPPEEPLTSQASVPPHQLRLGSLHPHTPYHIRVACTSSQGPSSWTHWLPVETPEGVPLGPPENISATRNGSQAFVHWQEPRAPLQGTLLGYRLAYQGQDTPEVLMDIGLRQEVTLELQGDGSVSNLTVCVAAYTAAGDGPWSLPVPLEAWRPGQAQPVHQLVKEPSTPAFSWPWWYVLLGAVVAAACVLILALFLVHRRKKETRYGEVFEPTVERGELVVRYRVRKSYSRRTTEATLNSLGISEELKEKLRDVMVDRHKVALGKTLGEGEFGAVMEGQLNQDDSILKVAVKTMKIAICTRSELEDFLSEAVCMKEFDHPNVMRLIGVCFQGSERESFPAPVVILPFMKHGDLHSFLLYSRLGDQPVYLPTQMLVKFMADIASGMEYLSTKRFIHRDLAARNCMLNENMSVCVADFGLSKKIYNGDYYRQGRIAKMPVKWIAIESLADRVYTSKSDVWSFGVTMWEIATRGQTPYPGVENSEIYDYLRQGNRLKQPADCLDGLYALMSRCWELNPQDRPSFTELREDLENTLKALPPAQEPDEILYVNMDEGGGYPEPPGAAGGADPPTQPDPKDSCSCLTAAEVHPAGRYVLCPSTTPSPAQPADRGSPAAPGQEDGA
Experimental: (§1) The inhibitory activities of standards towards MerTK, Axl, Tyro3 and Flt3 were determined in our in-house microcapillary electrophoresis (MCE) assays.
(§2) Microcapillary Electrophoresis (MCE) Assays were performed with literature method. […] All reactions were terminated by addition of 20 µL of 70 mM EDTA. After an 180 min incubation, phosphorylated and unphosphorylated substrate peptides (Table 2) were separated in buffer supplemented with 1 x CR-8 on a LabChip EZ Reader equipped with a 12-sipper chip. Data were analyzed using EZ Reader software.

MerTK = target: T2, MerTK (Homo sapiens, UniProt Q12866); assay: Microcapillary electrophoresis (MCE) kinase assay, MerTK; conditions: for IC50: MCE assay, ATP at Km, mean of two or more independent assays; for selectivity over Axl, Tyro3 and Flt3: MerTK versus Axl, Tyro3, Flt3 in MCE assays
T2 sequence (Q12866 21-999): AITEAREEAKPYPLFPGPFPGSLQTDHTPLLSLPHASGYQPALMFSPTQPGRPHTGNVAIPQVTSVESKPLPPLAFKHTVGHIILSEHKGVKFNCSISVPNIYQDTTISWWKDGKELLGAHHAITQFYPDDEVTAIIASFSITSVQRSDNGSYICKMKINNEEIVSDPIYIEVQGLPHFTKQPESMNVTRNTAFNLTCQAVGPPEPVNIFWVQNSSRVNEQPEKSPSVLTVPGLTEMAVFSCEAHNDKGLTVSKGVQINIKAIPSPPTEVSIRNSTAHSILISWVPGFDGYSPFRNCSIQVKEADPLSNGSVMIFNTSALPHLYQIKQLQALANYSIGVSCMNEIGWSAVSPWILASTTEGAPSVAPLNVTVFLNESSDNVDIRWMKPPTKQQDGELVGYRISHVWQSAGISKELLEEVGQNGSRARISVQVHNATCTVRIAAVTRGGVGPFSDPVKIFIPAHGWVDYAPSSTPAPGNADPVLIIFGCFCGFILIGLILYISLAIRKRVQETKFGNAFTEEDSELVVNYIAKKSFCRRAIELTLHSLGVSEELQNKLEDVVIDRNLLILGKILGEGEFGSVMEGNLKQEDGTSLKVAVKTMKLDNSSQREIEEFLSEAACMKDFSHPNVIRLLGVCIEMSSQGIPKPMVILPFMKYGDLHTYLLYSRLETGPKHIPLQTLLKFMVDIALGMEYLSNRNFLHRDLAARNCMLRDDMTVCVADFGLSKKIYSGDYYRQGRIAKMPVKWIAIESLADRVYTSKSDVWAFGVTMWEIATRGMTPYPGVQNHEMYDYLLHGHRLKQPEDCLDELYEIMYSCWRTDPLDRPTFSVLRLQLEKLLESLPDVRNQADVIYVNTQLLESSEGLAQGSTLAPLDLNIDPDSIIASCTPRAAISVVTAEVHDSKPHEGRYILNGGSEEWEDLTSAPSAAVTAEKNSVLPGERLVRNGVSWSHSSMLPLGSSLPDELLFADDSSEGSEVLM
Experimental: as §1, §2

Flt3 = target: T3, Flt3 (Homo sapiens, UniProt P36888); assay: Microcapillary electrophoresis (MCE) kinase assay, Flt3; conditions: ATP at Km, mean of two or more independent assays
T3 sequence (P36888 27-993): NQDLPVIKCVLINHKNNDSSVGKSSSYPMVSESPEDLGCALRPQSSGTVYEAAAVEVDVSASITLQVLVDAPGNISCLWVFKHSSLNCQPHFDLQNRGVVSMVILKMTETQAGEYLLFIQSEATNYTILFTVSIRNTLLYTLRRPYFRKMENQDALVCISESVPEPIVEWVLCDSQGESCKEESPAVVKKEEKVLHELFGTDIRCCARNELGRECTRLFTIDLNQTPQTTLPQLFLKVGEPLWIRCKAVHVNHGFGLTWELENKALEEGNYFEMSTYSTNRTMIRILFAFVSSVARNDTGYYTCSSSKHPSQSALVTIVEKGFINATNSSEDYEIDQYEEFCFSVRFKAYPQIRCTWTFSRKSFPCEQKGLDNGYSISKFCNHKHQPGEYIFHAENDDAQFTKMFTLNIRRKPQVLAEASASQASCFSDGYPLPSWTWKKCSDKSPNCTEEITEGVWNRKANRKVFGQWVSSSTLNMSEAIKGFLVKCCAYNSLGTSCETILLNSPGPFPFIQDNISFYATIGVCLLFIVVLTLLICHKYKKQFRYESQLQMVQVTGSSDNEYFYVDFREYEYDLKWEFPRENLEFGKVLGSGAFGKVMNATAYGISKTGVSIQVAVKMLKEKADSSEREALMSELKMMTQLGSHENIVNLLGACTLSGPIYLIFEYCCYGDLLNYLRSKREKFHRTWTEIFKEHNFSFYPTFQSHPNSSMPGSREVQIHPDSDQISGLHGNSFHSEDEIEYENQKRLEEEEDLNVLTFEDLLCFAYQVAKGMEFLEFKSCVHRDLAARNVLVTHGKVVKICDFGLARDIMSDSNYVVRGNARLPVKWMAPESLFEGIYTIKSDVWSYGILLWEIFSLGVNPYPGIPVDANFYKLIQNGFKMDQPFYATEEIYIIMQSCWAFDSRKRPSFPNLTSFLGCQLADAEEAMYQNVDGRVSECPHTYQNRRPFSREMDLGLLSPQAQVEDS
Experimental: as §1, §2

Row | IC50 (Axl) [nM] | IC50 (MerTK) [nM] | selectivity over Axl, Tyro3 and Flt3 (MerTK) | IC50 (Flt3) [nM] | SMILES
1 | 1700 | 61 | Good selectivity | > 30000 | C[C@H](Nc1ncc2c(C3CCN(C)CC3)cn([C@H]3CC[C@H](O)CC3)c2n1)c1ccccc1 [MerTK-2]
2 | 4100 | 13 |  | > 30000 | C[C@H](Nc1ncc2c(C3CCN(C(=S)Nc4ccc(CC5CN(CC(=O)O)CCN(CC(=O)O)CCN5CC(=O)O)cc4)CC3)cn([C@H]3CC[C@H](O)CC3)c2n1)c1ccccc1 (stereo partly drawn) [MerTK-4]
3 | 1100 | 15 | good selectivity | 1000 | CCC[C@H](C)Nc1ncc2c(C3CCN(CCF)CC3)cn([C@H]3CC[C@H](O)CC3)c2n1 [MerTK-5]
4 | 2100 | 37 | good selectivity | 5500 | C[C@H](Nc1ncc2c(C3CCN(CCF)CC3)cn([C@H]3CC[C@H](O)CC3)c2n1)c1ccccc1 [MerTK-6]
